Calls of active or inactive are those of the source. How the calls were made is not given here.
Assays:
[1] = biological target: Ribosomal protein S6 kinase alpha-3 (Homo sapiens, UniProt P51812)
EKVX = assay: Growth inhibition of human EKVX cells after 48 hrs by SRB assay; format: functional
COLO 205 = assay: Growth inhibition of human COLO205 cells after 48 hrs by SRB assay; format: functional; conditions: COLO 205, 48 h
[2] = biological target: Ribosomal protein S6 kinase alpha-1 (Homo sapiens, UniProt Q15418)
Chain of Ribosomal protein S6 kinase alpha-1 (Q15418 whole entry): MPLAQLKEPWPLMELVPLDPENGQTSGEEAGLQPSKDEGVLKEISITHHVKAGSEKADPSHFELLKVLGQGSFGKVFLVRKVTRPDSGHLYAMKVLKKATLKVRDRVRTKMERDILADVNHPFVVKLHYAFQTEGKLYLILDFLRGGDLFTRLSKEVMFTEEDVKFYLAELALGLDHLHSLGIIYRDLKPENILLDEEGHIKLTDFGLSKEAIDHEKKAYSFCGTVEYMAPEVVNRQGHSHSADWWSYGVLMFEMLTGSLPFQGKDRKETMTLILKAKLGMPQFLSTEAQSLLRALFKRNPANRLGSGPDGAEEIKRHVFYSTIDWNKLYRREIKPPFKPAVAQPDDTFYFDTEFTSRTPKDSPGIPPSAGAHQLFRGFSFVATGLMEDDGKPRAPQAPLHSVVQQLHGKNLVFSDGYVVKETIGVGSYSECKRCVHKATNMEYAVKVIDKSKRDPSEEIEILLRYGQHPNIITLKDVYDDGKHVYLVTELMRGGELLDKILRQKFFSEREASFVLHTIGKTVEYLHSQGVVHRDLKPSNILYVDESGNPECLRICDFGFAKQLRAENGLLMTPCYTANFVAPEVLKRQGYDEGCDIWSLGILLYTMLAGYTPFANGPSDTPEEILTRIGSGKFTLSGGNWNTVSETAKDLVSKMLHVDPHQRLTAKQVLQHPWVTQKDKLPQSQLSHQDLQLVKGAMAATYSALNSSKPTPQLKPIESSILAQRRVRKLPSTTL

[3] = biological target: Serine/threonine-protein kinase Chk2 (Homo sapiens, UniProt O96017)
Chain of Serine/threonine-protein kinase Chk2 (O96017 whole entry): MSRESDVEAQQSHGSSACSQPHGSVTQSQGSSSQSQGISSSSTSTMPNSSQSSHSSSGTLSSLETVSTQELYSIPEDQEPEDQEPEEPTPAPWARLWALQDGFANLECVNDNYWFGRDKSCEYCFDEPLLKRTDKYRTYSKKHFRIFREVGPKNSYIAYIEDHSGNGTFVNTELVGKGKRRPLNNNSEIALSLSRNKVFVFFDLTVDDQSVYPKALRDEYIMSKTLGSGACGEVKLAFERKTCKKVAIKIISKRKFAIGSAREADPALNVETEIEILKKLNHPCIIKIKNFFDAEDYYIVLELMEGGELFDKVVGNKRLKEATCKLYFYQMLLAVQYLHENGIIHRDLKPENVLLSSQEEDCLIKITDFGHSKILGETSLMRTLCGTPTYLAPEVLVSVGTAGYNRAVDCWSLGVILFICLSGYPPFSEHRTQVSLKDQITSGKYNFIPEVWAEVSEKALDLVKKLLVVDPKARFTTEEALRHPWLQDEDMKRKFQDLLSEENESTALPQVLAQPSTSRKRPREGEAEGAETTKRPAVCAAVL
Description: Inhibition of CHK2 assessed as inhibition of substrate phosphorylation using fluorescent peptide substrate by microplate reader assay

SK-MEL-5 = assay: Growth inhibition of human SK-MEL-5 cells after 48 hrs by SRB assay; format: functional; conditions: SK-MEL-5, 48 h
SNB-75 = assay: Growth inhibition of human SNB75 cells after 48 hrs by SRB assay; format: functional; conditions: SNB-75, 48 h
M14 = assay: Growth inhibition of human M14 cells after 48 hrs by SRB assay; format: functional; conditions: M14, 48 h
RXF 393 = assay: Growth inhibition of human RXF393 cells after 48 hrs by SRB assay; format: functional; conditions: RXF 393, 48 h
HL-60(TB) = assay: Growth inhibition of human HL-60(TB) cells after 48 hrs by SRB assay; format: functional; conditions: HL-60, 48 h
SK-OV-3 = assay: Growth inhibition of human SKOV3 cells after 48 hrs by SRB assay; format: functional; conditions: SK-OV-3, 48 h
HOP-62 = assay: Growth inhibition of human HOP62 cells after 48 hrs by SRB assay; format: functional; conditions: HOP-62, 48 h
CAKI-1 = assay: Growth inhibition of human Caki1 cells after 48 hrs by SRB assay; format: functional; conditions: CAKI-1, 48 h
SNB-19 = assay: Growth inhibition of human SNB19 cells after 48 hrs by SRB assay; format: functional; conditions: SNB-19, 48 h
PC-3 = assay: Growth inhibition of human PC3 cells after 48 hrs by SRB assay; format: functional; conditions: PC-3, 48 h
ACHN = assay: Growth inhibition of human ACHN cells after 48 hrs by SRB assay; format: functional
SK-MEL-28 = assay: Growth inhibition of human SK-MEL-28 cells after 48 hrs by SRB assay; format: functional; conditions: SK-MEL-28, 48 h
K562 = assay: Growth inhibition of human K562 cells after 48 hrs by SRB assay; format: functional; conditions: K562, 48 h
OVCAR-4 = assay: Growth inhibition of human OVCAR4 cells after 48 hrs by SRB assay; format: functional; conditions: OVCAR-4, 48 h
MDA-MB-468 = assay: Growth inhibition of human MDA-MB-468 cells after 48 hrs by SRB assay; format: functional; conditions: MDA-MB-468, 48 h
NCI-H23 = assay: Growth inhibition of human NCI-H23 cells after 48 hrs by SRB assay; format: functional; conditions: NCI-H23, 48 h
KM12 = assay: Growth inhibition of human KM12 cells after 48 hrs by SRB assay; format: functional; conditions: KM12, 48 h
[4] = biological target: T1, Aurora kinase A (Homo sapiens) (UniProt O14965); assay: Inhibition of Aurora kinase A assessed as inhibition of substrate phosphorylation using fluorescent peptide substrate up to 100 uM by microplate reader assay
T1 sequence (whole entry): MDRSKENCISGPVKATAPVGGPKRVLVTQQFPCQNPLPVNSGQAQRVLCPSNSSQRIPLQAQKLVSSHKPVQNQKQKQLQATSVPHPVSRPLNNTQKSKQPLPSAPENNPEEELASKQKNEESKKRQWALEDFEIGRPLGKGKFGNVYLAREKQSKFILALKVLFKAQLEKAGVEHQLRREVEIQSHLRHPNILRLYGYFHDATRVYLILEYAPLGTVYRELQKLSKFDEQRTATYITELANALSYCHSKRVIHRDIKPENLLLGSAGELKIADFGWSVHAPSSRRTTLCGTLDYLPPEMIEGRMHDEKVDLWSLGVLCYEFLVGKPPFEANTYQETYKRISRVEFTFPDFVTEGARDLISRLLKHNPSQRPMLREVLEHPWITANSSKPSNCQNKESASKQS

MDA-MB-435 = assay: Growth inhibition of human MDA-MB-435 cells after 48 hrs by SRB assay; format: functional; conditions: MDA-MB-435, 48 h
786-0 = assay: Growth inhibition of human 786-0 cells after 48 hrs by SRB assay; format: functional; conditions: 786-0, 48 h
HCT-116 = assay: Growth inhibition of human HCT116 cells after 48 hrs by SRB assay; format: functional; conditions: HCT-116, 48 h
CCRF-CEM = assay: Growth inhibition of human CCRF-CEM cells after 48 hrs by SRB assay; format: functional
LOX IMVI = assay: Growth inhibition of human LOXIMVI cells after 48 hrs by SRB assay; format: functional
HT-29 = assay: Growth inhibition of human HT-29 cells after 48 hrs by SRB assay; format: functional; conditions: HT-29, 48 h
RPMI-8226 = assay: Growth inhibition of human RPMI8226 cells after 48 hrs by SRB assay; format: functional; conditions: RPMI-8226, 48 h
SF-539 = assay: Growth inhibition of human SF539 cells after 48 hrs by SRB assay; format: functional; conditions: SF-539, 48 h
[5] = read-out: pLC50 (the source's name) (converted)

Chain of Ribosomal protein S6 kinase alpha-3 (P51812 whole entry): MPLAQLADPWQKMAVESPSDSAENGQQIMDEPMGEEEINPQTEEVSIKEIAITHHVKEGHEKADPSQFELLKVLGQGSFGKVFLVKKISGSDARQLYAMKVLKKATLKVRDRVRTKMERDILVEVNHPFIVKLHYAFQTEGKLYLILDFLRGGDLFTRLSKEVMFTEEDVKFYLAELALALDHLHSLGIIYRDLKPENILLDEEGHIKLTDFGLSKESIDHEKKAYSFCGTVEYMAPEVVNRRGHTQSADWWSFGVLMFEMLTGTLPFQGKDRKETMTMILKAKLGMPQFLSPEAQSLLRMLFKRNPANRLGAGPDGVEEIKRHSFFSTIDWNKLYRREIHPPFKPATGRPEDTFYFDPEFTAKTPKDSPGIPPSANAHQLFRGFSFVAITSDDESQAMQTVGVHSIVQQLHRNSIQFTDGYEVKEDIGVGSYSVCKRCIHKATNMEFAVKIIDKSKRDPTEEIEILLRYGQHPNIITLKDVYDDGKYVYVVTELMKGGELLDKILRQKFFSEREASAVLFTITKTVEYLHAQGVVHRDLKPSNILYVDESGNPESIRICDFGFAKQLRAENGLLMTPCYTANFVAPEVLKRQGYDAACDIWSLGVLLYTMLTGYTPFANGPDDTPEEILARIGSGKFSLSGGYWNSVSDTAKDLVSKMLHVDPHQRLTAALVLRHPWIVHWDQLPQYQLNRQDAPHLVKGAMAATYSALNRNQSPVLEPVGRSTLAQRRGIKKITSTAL

Work on `N=C(N)N/N=C\c1c(-c2ccc([N+](=O)[O-])cc2)nc2sc(Br)cn12` yielded an IC50 [1] of 607 nM, a GI50 (EKVX) of 1070 nM and a CC50 (EKVX; [5]) of 7410 nM. It also gave a TGI (EKVX; read-out: pTGI (converted)) of 4470 nM, a GI50 (COLO 205) of 166 nM and a CC50 (COLO 205; [5]) of 646 nM. For the same compound, the TGI (COLO 205; read-out: pTGI (converted)) was 331 nM, the IC50 [2] was 1180 nM and the IC50 [3] was 88500 nM. It also gave a GI50 (SK-MEL-5) of 490 nM, a CC50 (SK-MEL-5; [5]) of 5370 nM and a TGI (SK-MEL-5; read-out: pTGI (converted)) of 1950 nM. For the same compound, the GI50 (SNB-75) was 204 nM, the CC50 (SNB-75; [5]) was 1290 nM and the TGI (SNB-75; read-out: pTGI (converted)) was 4680 nM. For the same compound, the GI50 (M14) was 229 nM, the CC50 (M14; [5]) was 1660 nM and the TGI (M14; read-out: pTGI (converted)) was 537 nM. For the same compound, the GI50 (RXF 393) was 186 nM, the CC50 (RXF 393; [5]) was 759 nM and the TGI (RXF 393; read-out: pTGI (converted)) was 372 nM. It also gave a GI50 (HL-60(TB)) of 219 nM, a GI50 (SK-OV-3) of 148 nM and a CC50 (SK-OV-3; [5]) of 5620 nM. For the same compound, the TGI (SK-OV-3; read-out: pTGI (converted)) was 4470 nM, the GI50 (HOP-62) was 191 nM and the CC50 (HOP-62; [5]) was 851 nM. The TGI (HOP-62; read-out: pTGI (converted)) was 3980 nM, the GI50 (CAKI-1) was 234 nM and the CC50 (CAKI-1; [5]) was 4790 nM. It also gave a TGI (CAKI-1; read-out: pTGI (converted)) of 1070 nM, a GI50 (SNB-19) of 380 nM and a CC50 (SNB-19; [5]) of 5010 nM. For the same compound, the TGI (SNB-19; read-out: pTGI (converted)) was 4790 nM, the GI50 (PC-3) was 186 nM and the CC50 (PC-3; [5]) was 759 nM. The TGI (PC-3; read-out: pTGI (converted)) was 380 nM, the GI50 (ACHN) was 295 nM and the CC50 (ACHN; [5]) was 5370 nM. It also gave a TGI (ACHN; read-out: pTGI (converted)) of 871 nM, a GI50 (SK-MEL-28) of 191 nM and a CC50 (SK-MEL-28; [5]) of 676 nM. It also gave a TGI (SK-MEL-28; read-out: pTGI (converted)) of 363 nM, a GI50 (K562) of 40.7 nM and a GI50 (OVCAR-4) of 191 nM. For the same compound, the CC50 (OVCAR-4; [5]) was 776 nM, the TGI (OVCAR-4; read-out: pTGI (converted)) was 380 nM and the GI50 (MDA-MB-468) was 158 nM. It also gave a CC50 (MDA-MB-468; [5]) of 646 nM, a TGI (MDA-MB-468; read-out: pTGI (converted)) of 3240 nM and a GI50 (NCI-H23) of 389 nM. For the same compound, the CC50 (NCI-H23; [5]) was 3980 nM, the TGI (NCI-H23; read-out: pTGI (converted)) was 4470 nM and the GI50 (KM12) was 200 nM. For the same compound, the CC50 (KM12; [5]) was 759 nM, the TGI (KM12; read-out: pTGI (converted)) was 389 nM and the inhibition [4] was “inactive”. For the same compound, the GI50 (MDA-MB-435) was 251 nM, the CC50 (MDA-MB-435; [5]) was 5370 nM and the TGI (MDA-MB-435; read-out: pTGI (converted)) was 7410 nM. It also gave a GI50 (786-0) of 174 nM, a CC50 (786-0; [5]) of 575 nM and a TGI (786-0; read-out: pTGI (converted)) of 316 nM. The GI50 (HCT-116) was 166 nM, the CC50 (HCT-116; [5]) was 832 nM and the TGI (HCT-116; read-out: pTGI (converted)) was 302 nM. It also gave a GI50 (CCRF-CEM) of 102 nM, a CC50 (CCRF-CEM; [5]) of over 100000 nM and a GI50 (LOX IMVI) of 191 nM. For the same compound, the TGI (LOX IMVI; read-out: pTGI (converted)) was 417 nM, the GI50 (HT-29) was 178 nM and the CC50 (HT-29; [5]) was 646 nM. The TGI (HT-29; read-out: pTGI (converted)) was 339 nM, the GI50 (RPMI-8226) was 178 nM and the TGI (RPMI-8226; read-out: pTGI (converted)) was 417 nM. The GI50 (SF-539) was 372 nM, the CC50 (SF-539; [5]) was 3720 nM and the TGI (SF-539; read-out: pTGI (converted)) was 1260 nM.

From ChEMBL document CHEMBL1909514, “Imidazo[2,1-b]thiazole guanylhydrazones as RSK2 inhibitors” (Eur J Med Chem, 2011)
